Results reported in patent US20250101026A1, “Functionalized Allopurinol Derivatives for Treatment of Alzheimer’s Disease” (BOARD OF REGENTS OF THE UNIVERSITY OF NEBRASKA, priority 2022, published 2025).
“Also recorded” adds a separate entry of the source. Like-named read-outs stand apart in the source and are kept apart here.

How the values were obtained:
Aβ-ABAD PPI = target: T1, Aβ-ABAD PPI (Homo sapiens, UniProt Q99714); assay: Estradiol ELISA assay: rescue of Aβ-induced reduction of estradiol levels in SH-SY5Y cells; format: cell-based; settings: compounds 24 hours then Aβ 72 hours
T1 construct: wildtype human SH-SY5Y cell lines, which are known to express ABAD; endogenous in cells; host or cells: SH-SY5Y
T1 sequence (Q99714 2-261 limits assumed): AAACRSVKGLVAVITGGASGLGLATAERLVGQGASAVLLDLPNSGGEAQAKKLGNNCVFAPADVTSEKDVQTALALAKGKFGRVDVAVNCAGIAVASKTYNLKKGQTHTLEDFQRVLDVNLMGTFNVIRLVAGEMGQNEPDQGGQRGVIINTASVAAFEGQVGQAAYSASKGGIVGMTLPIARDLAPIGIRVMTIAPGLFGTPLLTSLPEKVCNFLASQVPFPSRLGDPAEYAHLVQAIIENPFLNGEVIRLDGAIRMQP
Procedure: (§1) Cell Culture. The cell line SH-SY5Y was cultured in DMEM/F12 media supplemented with 10% fetal bovine serum, 1% penicillin-streptomycin and maintained as monolayer cultures in a humidified atmosphere containing 5% CO2 at 37° C.^42 All cell lines were authenticated via short tandem repeat analysis and tested for mycoplasma using the a commercial mycoplasma detection kit as per the manufacturer's instructions, showing no contamination. Where indicated, cells were also cultured in DMEM/low glucose media. All compounds were diluted to 20 mM solution in DMSO and were serially diluted in cell culture media for cell treatments to a final concentration range of 0.01 to 100 μM, maintaining the final DMSO concentration at less than 1%. Positive control compound HupA was serially diluted in a similar fashion as the synthesized compounds.
(§2) Amyloid Preparation. The peptide Aβ1-42, referred to as “Aβ”, was obtained from a commercial source. The oligomers of Aβ were prepared using an established method,^43 Aβ peptide was resuspended in 0.5 mM NaOH at a concentration of […] and stored at −80° C. For use in cell cultures, the stock solution was incubated at 37° C. for 5-7 days. Before use, the peptide was diluted to 25 μM in DMEM/low glucose media.
Estradiol ELISA assay. SH-SY5Y cells were treated with compounds (24 hours), followed by Aβ (72 hours) in a similar fashion to that employed in the cell viability assays, the cell culture medium was collected, and cells were lysed using RIPA buffer and protease inhibitor cocktail, then proteins were quantified via BCA assay. An estradiol assay was performed. In brief, the plate was loaded with samples, along with the estradiol tracer and the specific antiserum to estradiol and incubated for one hour at room temperature. After five washing steps, Ellman's Reagent was added, and the plate developed for 60 minutes with gentle shaking at room temperature. The calculated estradiol concentration was normalized to the total protein content of the samples.
Statistical Analyses. The IC50 values of each compound were acquired from a single experiment with each inhibitor concentration run in triplicate and the statistical significance was calculated using the Student t test, or a one-way or two-way ANOVA. A P value of <0.05 was considered statistically significant. IC50 values were calculated.
To determine the effect of Aβ on estradiol production, and ABAD's role in this process, wildtype human SH-SY5Y cell lines, which are known to express ABAD, were incubated for 72 hours with Aβ.^20 Estradiol levels in the cell lysate were measured with a commercial ELISA-based estradiol assay. […] To determine if AG18051 treatment affects Aβ-induced reduction of estradiol levels, 0.1 or 1 μM AG18051 was preincubated in SH-SY5Y cells for 24 hours prior to Aβ exposure. […] AG18051 at 1 μM protected SH-SY5Y cells from Aβ-induced reduction of estradiol production to a greater significance than HupA. This confirms literature reports that AG18051 is neuroprotective and that it exerts this effect by ameliorating Aβ-induced reduction of estradiol production by ABAD.^20, 23
This assay methodology allows direct screening of compound activity in the presence of Aβ and provides direct evidence of the ability of compounds to rescue Aβ-induced reduction of estradiol production by ABAD. To measure the effect of AG18051 alone in SH-SY5Y cell lines, a 0.01-100 μM dose-response range was tested, and their effect on estradiol levels (FIG. 2B). […] To evaluate the effect of the increase of AG18051 dose in maintaining estradiol levels reduced by Aβ, AG18051 was tested in increasing concentrations in the presence of Aβ (FIG. 2B).

SH-SY5Y cells [1] = assay: Mitochondrial Stress Test in Aβ-treated SH-SY5Y cells (extracellular flux analyzer); format: cell-based, human
Procedure: Mitochondrial Stress Test. […] After 48 hours, media was replaced with assay medium consisting of XF Base Medium supplemented with 10 mM glucose, 10 mM pyruvic acid, and 1 mM L-glutamine. Subsequently, the analysis of mitochondrial oxygen consumption rate (OCR) was performed in a flux analyzer. The OCR values were obtained both during baseline (prior to addition of any Mito Stress Test substances), and after the addition of […], 2 μM FCCP and 0.5 μM rotenone+0.5 μM antimycin A, respectively. Prior to analysis, data were corrected by withdrawing non-mitochondrial respiration (measured after the injection of rotenone and antimycin A) from all measured OCR values. After the experiment, cells were lysed using RIPA buffer and protease inhibitor cocktail, then proteins were quantified via BCA assay. Results were normalized to protein concentration of each well to its OCR value.

SH-SY5Y cells [2] = assay: Cell viability of SH-SY5Y cells with compound alone; format: cell-based, human; settings: up to 100 μM
Procedure: as §1
Cell Viability Assays. The SH-SY5Y cells were plated at a density of 50,000 cells/well in 96-well plates and allowed to adapt overnight in a humidified atmosphere containing 5% CO2 at 37° C. The cells were pretreated (24 hours) with the test compound and exchanged to a serum-free DMEM/low glucose media, prior to incubation with 25 μM of Aβ. Cell viability was measured after 48 hours using commercial MTS assay or lactate dehydrogenase (LDH) cytotoxicity assay. […]

SH-SY5Y cells [3] = assay: Aβ-induced toxicity in SH-SY5Y cells, MTS assay; format: cell-based, human; settings: 1 μM
Procedure: as §1, §2
Cell Viability Assays. The SH-SY5Y cells were plated at a density of 50,000 cells/well in 96-well plates and allowed to adapt overnight in a humidified atmosphere containing 5% CO2 at 37° C. The cells were pretreated (24 hours) with the test compound and exchanged to a serum-free DMEM/low glucose media, prior to incubation with 25 μM of Aβ. Cell viability was measured after 48 hours using commercial MTS assay or lactate dehydrogenase (LDH) cytotoxicity assay.
Employing human neuroblastoma SH-SY5Y ‘neuron-like’ cells, known to express ABAD,^20 experimental conditions are described herein that result in reproducible loss of 65% cell viability upon treatment with 25 μM Aβ after 48-hour incubation (FIG. 4A). Compound 1 (AG18051) and its analog 14b were screened for toxic effects in the SH-SY5Y cell lines.
HupA at 10 μM concentration provided 74% protection from Aβ-induced toxicity. […] Again, synthesized compound 14b at 1 μM, afforded greater protection than HupA at 10 μM concentration.

- IC50 (Aβ-ABAD PPI; amelioration of Aβ-induced reduction of estradiol levels, read-out: IC50 (estradiol assay)): 740 nM
- IC50 (Aβ-ABAD PPI; read-out: IC50 (estradiol assay), unit inferred): 738 ± 105 nM
Compound: O=C(C(c1ccccc1)n1cnc2[nH]ncc2c1=S)N1CCC(O)CC1 (centres unmarked) [Compound 14b, 1-(4-hydroxypiperidin-1-yl)-2-phenyl-2-(4-thioxo-1,4-dihydro-5H-pyrazolo[3,4-d]pyrimidin-5-yl)ethan-1-one]
- basal respiration: restored share of the cell respiration reduced by Aβ (SH-SY5Y cells [1]; 1 μM pretreatment 24 hrs, then 25 μM Aβ 48 hrs): 46%
- proton leak, ATP production and maximal respiration: restoration of mitochondrial function lost by Aβ (SH-SY5Y cells [1]; 1 μM pretreatment, then 25 μM Aβ): trend to restore; also recorded: trend to rescue
- basal respiration, rescue of Aβ-mediated dysfunction (SH-SY5Y cells [1]; SH-SY5Y cells): significantly rescuing
- toxicity to reduce cell viability (SH-SY5Y cells [2]): no toxicity; also recorded: non-toxic
- rescue of Aβ-induced reduction of cell viability (MTS assay) (SH-SY5Y cells [3]): significantly rescued
- protection of cell viability (MTS assay) (SH-SY5Y cells [3]; pretreated 24 hrs, then 25 μM Aβ 48 hrs): 82%
